Reference: patent US12398106B2, “Catecholamine carbamate prodrugs for use in the treatment of parkinson's disease” (H. Lundbeck A/S, priority 2019, dated 2025)

Key:
human 5-HT2B receptor [1] = target: T1, human 5-HT2B receptor (Homo sapiens, UniProt P41595); assay: 5-HT2B agonist activity assay (IP1 production, HTRF, transfected CHO cells); type: cell-based
T1 construct: host or cells: CHO cells
Protocol: Evaluation of the agonist activity of compounds (I), (Ia) and (Ib) at the human 5-HT2B receptor was performed by Eurofins/Cerep (France) measuring the compound effects on inositol monophosphate (IP1) production using the HTRF detection method. Briefly, the human 5-HT2B receptor was expressed in transfected CHO cells. The cells were suspended in a buffer containing 10 mM Hepes/NaOH (pH 7.4), 4.2 mM KCl, 146 mM NaCl, 1 mM CaCl2, 0.5 mM MgCl2, 5.5 mM glucose and 50 mM LiCl, then distributed in microplates at a density of 4100 cells/well and incubated for 30 min at 37° C. in the presence of buffer (basal control), test compound or reference agonist. For stimulated control measurement, separate assay wells contained 1 μM 5-HT. Following incubation, the cells were lysed and the fluorescence acceptor (fluorophen D2-labeled IP1) and fluorescence donor (anti-IP1 antibody labeled with europium cryptate) were added. After 60 minutes at room temperature, the fluorescence transfer was measured at lambda(Ex) 337 nm and lambda (Em) 620 and 665 nm using a microplate reader (Rubystar, BMG). The IP1 concentration was determined by dividing the signal measured at 665 nm by that measured at 620 nm (ratio). The results were expressed as a percent of the control response to 1 μM 5-HT. […]

[2] = PK experiments in rats: plasma compound (I) after oral dosing of prodrug; conditions: for Plasma concentrations / exposure of compound (I) after oral dosing of prodrug (in words): Wistar rats, doses equal to 287 μg/kg of compound (I); for Observed metabolite, in vivo PK study after oral dosing (rats): plasma
Protocol: For all the experiments, blood samples of approximately 0.68 mL were drawn from the tail or sublingual vein and put into K3EDTA tubes that had been pre-cooled and prepared with stabilizing solution consisting of 80 μL ascorbic acid and 40 μL 100 mM D-saccharic acid 1,4 lactone in water. The tubes were inverted gently 6-8 times to ensure thorough mixing and then placed in wet ice. The collecting tube was placed in wet ice for up to 30 minutes until centrifugation. Once removed from the wet ice the centrifugation was initiated immediately. Immediately after end of centrifugation the samples were returned to wet ice. Three sub-samples of 130 μL plasma were transferred to each of three appropriately labelled cryo tubes containing 6.5 μL pre-cooled formic acid (20%) (the tubes were pre-spiked and stored refrigerated prior to use). The tube lid was immediately replaced, and the plasma solution was thoroughly mixed by inverting gently 6-8 times. The samples were stored frozen at nominally −70° C. within 60 minutes after sampling. Centrifugation conditions at 3000 G for 10 minutes at 4° C. Plasma was placed on water-ice following collection. Final storage at approximately −70° C.
Plasma samples were analyzed by solid phase extraction or direct protein precipitation followed by UPLC-MS/MS. MS detection using electrospray in the positive ion mode with monitoring of specific mass-to-charge transitions for compound (I) using internal standards for correcting the response. The concentration-time data was analyzed, using standard software using appropriate noncompartmental techniques to obtain estimates of the derived PK parameters.
Mass spectrometer (LC-MS/MS) Waters Acquity-Sciex API 5000. Analytical column Waters BEH UPLC Phenyl 100×2.1 mm column, 1.7 μm particle size. Mobile phase A: 20 mM ammonium formate (aq)+0.5% formic acid. Mobile phase B: Acetonitrile. Gradient run from 95/5% to 2/98 in 6.1 minutes. Flow rate 0.5 mL/min. MRM monitoring (multiple reaction monitoring) of test item and the added analytical standards
Han Wistar rats were supplied by Charles River Laboratories, Sulzfeld, Germany. An artificial, automatically controlled, light and dark cycle of 12 hours was maintained. The rats received a standard laboratory diet from Brogaarden (Altromin 1324 pellets). The rats had unrestricted access to the diet.
Mass spectrometer (LC-MS/MS) Waters Acquity-Sciex API 5000. Analytical column Waters BEH UPLC Phenyl 100×2.1 mm column, 1.7 μm particle size. Mobile phase A: 20 mM ammonium formate (aq)+0.5% formic acid. Mobile phase B: Acetonitrile. Gradient run from 95/5% to 2/98 in 6.1 minutes. Flow rate 0.5 mL/min. MRM monitoring of test item and the added analytical standards.
Han Wistar rats were supplied by Charles River Laboratories, UK. An artificial, automatically controlled, light and dark cycle of 12 hours was maintained. The rats received a standard laboratory diet (Teklad 2014C Diet.). The rats had unrestricted access to the diet.
Mass spectrometer (LC-MS/MS) Waters Acquity—Waters Xevo TQ-S. Analytical column Acquity BEH C18 100×2.1 mm, 1.7 μm. Mobile phase A: 20 mM NH4—Formate+0.2% formic acid. Mobile phase B: Acetonitrile+0.2% formic acid. Gradient run from 95/5% to 5/95% in 11.0 minutes. Flow rate 0.3 mL/min. MRM monitoring of test item and the added analytical standards.
Han Wistar rats were supplied by Envigo, UK.

human 5-HT2B receptor [3] = target: T1, human 5-HT2B receptor; assay: 5-HT2B radioligand binding assay ([125I](±)DOI, CHO cell membranes); conditions: read-out: 5-HT2B % at single concentration (binding affinity, % inhibition of control specific binding per footnote)
Protocol: Evaluation of the affinity of compounds for the human 5-HT2B receptor was determined in a radioligand binding assay at Eurofins/Cerep (France). Membrane homogenates prepared from CHO cells expressing the human 5HT2B receptor were incubated for 60 minutes at room temperature with 0.2 nM [125I](±)DOI (1-(4-iodo-2, 5-dimethoxyphenyl)propan-2-amine) in the absence or presence of the test compound in a buffer containing 50 mM Tris-HCl (pH 7.4), 5 mM MgCl2, 10 μM pargyline and 0.1% ascorbic acid. Nonspecific binding is determined in the presence of 1 μM (±)DOI. Following incubation, the samples were filtered rapidly under vacuum through glass fiber filters (GF/B, Packard) presoaked with 0.3% polyethyleneimine (PEI) and rinsed several times with ice-cold 50 mM Tris-HCl using a 96-sample cell harvester (Unifilter, Packard). The filters were dried and counted for radioactivity in a scintillation counter (Topcount, Packard) using a scintillation cocktail (Microscint 0, Packard). The results are expressed as a percent inhibition of the control radioligand specific binding. The standard reference compound was (±)DOI, which was tested in each experiment at several concentrations to obtain a competition curve from which its IC50 is calculated.

[4] = Conversion of compounds in human plasma (incubation, LC-MS/MS); type: in vitro ADME; conditions: for Observed metabolite, incubation in human plasma: 1 μM test compound, 37° C., 0 to 6 hours
Protocol: Frozen human plasma was thawed and then centrifuged at 3200×g for 5 minutes to remove debris. The pH value of the supernatant was then measured and adjusted to 7.4±0.1 by adding 1% phosphoric acid or 1 N sodium hydroxide. 2 μL of dosing solution (50 μM for test compounds and 100 μM for positive control (propantheline bromide)) was mixed with 98 μL of blank plasma to achieve 1 μM test compound and 2 μM positive control of final concentration. The mixture was incubated, and samples were withdrawn from the incubations at the pre-determined time points of 0, 0.5, 1, 2, 4 and 6 hours (in duplicate) at 37° C. in water bath. At each corresponding time point 10 μL inhibitor and 20 μL ascorbic acid and 2 μL formic acid (20%) are added, and then added 400 μL of “stop solution” (200 ng/mL tolbutamide plus 200 ng/mL labetalol in 50% ACN/MeOH) to precipitate protein. The substance was mixed thoroughly and thereafter Centrifugated at 4,000 rpm for 20 minutes. Then an aliquot of supernatant (50 μL) was transferred from each well to a sample plate and mixed with 100 μL ultrapure water. The plate was shaked at 800 rpm for about 10 minutes before submitting to LC-MS/MS analysis.
Mass spectrometer (LC-MS/MS) Shimadzu LC 20-AD Shimadzu UHPLC API 4000. Analytical column ACQUITY UPLC® BEH Phenyl 1.7 μm 2.1×50 mm. Mobile phase A: 0.1% Formic Acid in Water. Mobile phase B: 0.1% Formic Acid in Acetonitrile. […] Flow rate 0.7 mL/min.

[5] = man, after oral dosing; cited from earlier work

T1 sequence (P41595 whole entry): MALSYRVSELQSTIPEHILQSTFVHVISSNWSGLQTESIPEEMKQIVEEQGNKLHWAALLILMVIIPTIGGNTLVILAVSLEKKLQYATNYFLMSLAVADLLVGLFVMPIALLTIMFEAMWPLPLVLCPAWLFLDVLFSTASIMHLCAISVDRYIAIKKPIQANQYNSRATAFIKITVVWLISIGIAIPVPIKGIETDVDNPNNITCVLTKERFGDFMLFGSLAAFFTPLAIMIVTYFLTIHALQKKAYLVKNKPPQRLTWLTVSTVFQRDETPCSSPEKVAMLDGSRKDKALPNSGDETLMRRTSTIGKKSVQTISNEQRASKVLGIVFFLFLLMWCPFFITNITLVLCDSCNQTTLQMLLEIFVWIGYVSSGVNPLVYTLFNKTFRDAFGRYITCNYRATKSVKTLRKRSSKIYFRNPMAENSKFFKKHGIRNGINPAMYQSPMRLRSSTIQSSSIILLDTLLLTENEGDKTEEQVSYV

## CCCN1CCC[C@@H]2Cc3c(ccc4c3OCO4)C[C@H]21 [Compound (Ib), (6aR,10aR)-7-propyl-6,6a,7,8,9,10,10a,11-octahydro-[1,3]dioxolo[4′,5′:5,6]benzo[1,2-g]quinoline, reference compound]
Human 5-HT2B receptor [1]; c.f. example 2 and Table 3
  5-HT2B receptor agonism (in words): agonist of the 5-HT2B receptor
[2]
  Plasma concentrations / exposure of compound (I) after oral dosing of prodrug (in words): early and high peak concentrations of compound (I)

## CCCN1CCC[C@@H]2Cc3c(ccc(OC(=O)NC)c3OC(=O)NC)C[C@H]21 [Compound (1), (4aR,10aR)-1-propyl-1,2,3,4,4a,5,10,10a-octahydrobenzo[g]quinoline-6,7-diyl bis(methylcarbamate)]
Human 5-HT2B receptor [3]
  inhibition at 10 µM: 3%
[2]
  Observed metabolite, in vivo PK study after oral dosing (rats): Compound (I)

## CCCN1CCC[C@@H]2Cc3c(ccc(O)c3O)C[C@H]21 [Compound (I), (4aR,10aR)-1-Propyl-1,2,3,4,4a,5,10,10a-octahydro-benzo[g]quinoline-6,7-diol, reference compound]
[4]; human plasma incubation
  Half-life in the plasma assay (in words): short half-life

## CCCN1CCC[C@@H]2Cc3c(ccc(OC(=O)C(C)(C)C)c3OC(=O)C(C)(C)C)C[C@H]21 [(Ic), reference compound]
[2]
  Plasma concentrations / exposure of compound (I) after oral dosing of prodrug (in words): extremely low

## CCCc1cc2c(s1)CN[C@@H]1CCc3cc(OC(C)=O)c(OC(C)=O)cc3[C@@H]21 [Adrogolide]
[5]
  Oral bioavailability: ~4%

## CCCN1CCC[C@@H]2CC3=C(CCCC3=O)C[C@H]21 [Compound (Ia), reference compound]
Human 5-HT2B receptor [1]; @30 μM, percent of the control response to 1 μM 5-HT
  5-HT2B agonist effect at single concentration: 58%
[2]
  Plasma concentrations / exposure of compound (I) after oral dosing of prodrug (in words): early and high peak concentrations of compound (I)

## CCCN1CCC[C@@H]2Cc3c(ccc(OC(=O)N(C)C)c3OC(=O)N(C)C)C[C@H]21 [Compound (3), (4aR,10aR)-1-propyl-1,2,3,4,4a,5,10,10a-octahydrobenzo[g]quinoline-6,7-diyl bis(dimethylcarbamate)]
[4]
  Observed metabolite, incubation in human plasma: Compound (I)
Human 5-HT2B receptor [3]
  inhibition at 10 µM: 4%
[2]
  Observed metabolite, in vivo PK study after oral dosing (rats): Compound (I)

## CCCN1CCC[C@@H]2Cc3c(ccc(OC(=O)NCC)c3OC(=O)NCC)C[C@H]21 [Compound (2), (4aR,10aR)-1-propyl-1,2,3,4,4a,5,10,10a-octahydrobenzo[g]quinoline-6,7-diyl bis(ethylcarbamate)]
[4]
  Observed metabolite, incubation in human plasma: Compound (I)
Human 5-HT2B receptor [3]
  inhibition at 10 µM: 3%
[2]
  Observed metabolite, in vivo PK study after oral dosing (rats): Compound (I)
